According to patent US20110178104A1, “Anti-Heparin Compounds” (POLYMEDIX INC., priority 2010, published 2011):
In brackets after ≈: the same amount, converted by molar mass. Several values for one entry are separate records, joined by “and”; a condition that tells them apart may be missing. Equal entries are not always repeated. Values belong to the compound of their own block, whether it stands above or below them.

Legend:
[1] = tested on: isolated human erythrocytes; experiment: in vitro; format: cell-based
Procedure, shortened: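 Pooled human red cells, washed and diluted from a 0.22% stock suspension in TBS pH 7.4, were shaken with two-fold dilutions (1000 to 0.48 µg/ml) for 1 h at 37 °C. Released hemoglobin in the supernatant was read at OD405. EC50 came from a four-parameter logistic fit, with melittin as positive control.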

[2] = Cytotoxicity colorimetric assay, HepG2; format: cell-based, human; parameters: Cytotoxicity HepG2, percent printed in parentheses after the concentration: concentration or dose not given beside the values; conditions: human, HepG2 cells, one hour in serum-free media
Procedure, shortened: (§1)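 HepG2 cells (3×10^4/well, MEM + 10% FBS) and NIH/3T3 cells (2×10^4/well, DMEM + 10% BCS) were exposed to compound for 1 h in serum-free medium. Viability read by tetrazolium-to-formazan bioreduction after return to serum medium; EC50 from a four-parameter logistic fit.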

[3] = tested on: HepG2 cells; experiment: Cytotoxicity colorimetric assay, HepG2; format: cell-based, human; parameters: Cytotoxicity HepG2, percent printed in parentheses after the concentration: concentration or dose not given beside the values; conditions: for Cytotoxicity HepG2, percent printed in parentheses after the concentration: at the concentration given; for Cytotoxicity HepG2 EC50: one hour in serum-free media
Procedure, shortened: as §1

[4] = Cytotoxicity colorimetric assay, NIH/3T3; format: cell-based, mouse; conditions: mouse, NIH/3T3 cells, one hour in serum-free media
Procedure, shortened: as §1

[5] = tested on: NIH/3T3 cells; experiment: Cytotoxicity colorimetric assay, NIH/3T3; format: cell-based, mouse; conditions: for Cytotoxicity 3T3, percent printed in parentheses after the concentration: at the concentration given; for Cytotoxicity 3T3 EC50: one hour in serum-free media
Procedure, shortened: as §1

[6] = tested on: enoxaparin; experiment: In vivo neutralization of enoxaparin in the rat; conditions: for in vivo efficacy versus LMWH by anti-factor Xa activity (summary): compared with protamine; for neutralization of enoxaparin (aPTT and factor Xa assays, words): rat, enoxaparin 2 mg/kg IV
Method: Compounds were tested for their ability to neutralize enoxaparin coagulation inhibition in rats. Male Sprague-Dawley rats were used in this study (Charles River Laboratories). They were ten-weeks-old at the start of the study and their weights ranged from 319-362 g. Enoxaparin (2 mg/kg) was administered by IV injection to groups of six rats. After 3 min, saline, protamine or a test compound was administered by IV injection. Blood was collected before dosing with enoxaparin, and at 1, 3, 10, 30 and 60 min after dosing with the standard and test compounds. All treatments were dosed in a volume of 1 mL/kg. Blood was collected via the orbital sinus from three rats per group. At each time point, 1 mL of blood was collected from each animal into a single tube. The blood was analyzed using an AMEX Destiny Plus Coagulation Analyzer for activated partial thromboplastin time (APTT) and anti-Factor Xa (low-molecular weight).

[7] = tested on: enoxaparin; experiment: Enoxaparin-extended bleeding times, rat tail transection model; format: in vivo; conditions: for neutralization of prolonged bleeding times: rat, enoxaparin 2 mg/kg IV
Method: Studies have now been done to examine effects on extended bleeding times caused by enoxaparin treatment. Male Sprague Dawley rats (Charles River) were administered 2 mg/kg enoxaparin by IV injection in the tail vein, followed 3 minutes later by test agent (IV, tail vein) at 2 and 5 mg/kg doses. Tails were then rapidly transected and bleeding time onto an absorbant pad was determined. Enoxaparin alone (no antagonist) extends bleeding time from 11 to 24 seconds.

[8] = tested on: fondaparinux; experiment: In vivo neutralization of fondaparinux in the rat; conditions: for reduction of Factor Xa (anti-factor Xa) levels after fondaparinux: fondaparinux 0.5 mg/kg IV, test agent 2 and 5 mg/kg IV
Method: Compounds were selected to test fondaparinux neutralization in vivo. Rats were pre-treated with fondaparinux administered by IV injection at 0.5 mg/kg. The rats were then treated with a single IV injection of saline, protamine or the PMX compound. Blood was collected via the orbital sinus from three rats per group at the following time points: pre-dose, 1, 3, 10, 30 and 60 min. Plasma samples were prepared for analysis of anti-factor Xa activity using an AMEX Destiny Plus Coagulation Analyzer.

[9] = tested on: blood pressure; experiment: Hemodynamic responses in the anesthetized rat; format: in vivo; conditions: for hemodynamic liabilities (summary): rat, in vivo
From the text: As a key safety issue for cationic compounds is reduction in blood pressure shortly after administration. To address this hemodynamic issue, a medicinal chemistry strategy with literature precedence of introducing carboxylic acid functionality was applied to the salicylamide series of compounds. […] Surgically prepared animals were purchased from Charles River Laboratories, Raleigh, N.C. Animals were anesthetized on the day of experiment with isoflurane (1.8-4%). Blood pressure and heart rate data were collected on a Grass Polygraph recorder. The test articles, vehicle or protamine dosing preparations were administered once to each rat by a 10 minute intravenous infusion three minutes following a single intravenous injection of heparin (50 U/kg). Each animal received a dose volume of 2.0 mL/kg. Blood pressure was recorded prior to treatment for approximately 1 minute and immediately following heparin, immediately following vehicle, test articles or protamine and at 5, 15, 30, and 60 minutes following dosing. The doses of test agent were either 8 mg/kg or 16 mg/kg. The differences in hemodynamic effect at 16 mg/kg were especially profound (FIG. 5).

[10] = Coagulation properties via ROTEM; conditions: at fully efficacious doses
[11] = tested on: UFH; experiment: FXa amidolytic assay (Example 10), UFH; conditions: read-out: Heparin FXa uM EC50; UFH 0.03 units/mL; human antithrombin, bovine Factor Xa
[12] = tested on: enoxaparin; experiment: FXa amidolytic assay (Example 10), enoxaparin; conditions: read-out: Enox FXa EC50; enoxaparin 0.1 ug/ml; human antithrombin, bovine Factor Xa
[13] = tested on: fondaparinux; experiment: FXa amidolytic assay (Example 10), fondaparinux
[14] = tested on: Unfractionated heparin; experiment: aPTT clotting assay, UFH 0.4 U/mL in plasma (Example 10); format: biochemical; conditions: unfractionated heparin 0.4 U/mL in plasma; aPTT clotting
Method: aPTT clotting Assay: Unfractionated heparin was mixed with plasma at a final concentration of 0.4 U/mL (or concentration which increases aPTT time to between 120 and 300 seconds). […] The ACL Elite Hemostasis analyzer (Beckman Coulter™) was used to add aPTT reagent (HemosIL SynthASil) to supplemented plasma. Clotting was initiated by addition of CaCl2 and time to clot was recorded.

[15] = tested on: tinzaparin; experiment: FXa amidolytic assay (Example 10), tinzaparin; conditions: read-out: Tinzap FXa EC50; tinzaparin 0.1 ug/ml; human antithrombin, bovine Factor Xa

EC50 [11]: 0.343 µM | EC50 [12]: 186 nM
Compound: COc1ccc(NC(=O)[C@@H](CCCNC(=N)N)NC(=O)c2cc(NC(=O)[C@@H](CCCNC(=N)N)NC(=O)c3cc(NC(=O)[C@@H](CCCNC(=N)N)NC(=O)c4cc(NC(=O)[C@H](N)CCCNC(=N)N)ccc4OC)ccc3OC)ccc2OCC(=O)O)cc1C(=O)N[C@H](Cc1c[nH]c2ccccc12)C(N)=O [Compound 305]
hemolysis and cytotoxicity (summary) [1]: non-hemolytic and low cytotoxicity | EC50 at 1 h [2]: 1000 µg/mL (≈ 681 µM) | Cytotoxicity HepG2, percent printed in parentheses after the concentration [3]: 50% | Cytotoxicity HepG2 EC50 [3]: >1000 µg/mL | EC50 at 1 h [4]: 1000 µg/mL (≈ 681 µM) | Cytotoxicity 3T3, percent printed in parentheses after the concentration [5]: 50% | Cytotoxicity 3T3 EC50 [5]: >1000 µg/mL | in vivo efficacy versus LMWH by anti-factor Xa activity (summary) [6]: superior to protamine | neutralization of enoxaparin (aPTT and factor Xa assays, words) [6]: marginally more efficacious than the 3-Arg derivative | in vivo efficacy versus LMWH by bleeding time (summary) ([7]; compared with protamine): superior to protamine | neutralization of prolonged bleeding times ([7]; test agent 2 mg/kg IV): completely neutralized | reduction of Factor Xa (anti-factor Xa) levels after fondaparinux [8]: effective in reducing Factor Xa activity | in vivo efficacy versus fondaparinux (summary) [8]: in vivo efficacy versus fondaparinux | hemodynamic response profile ([9]; anesthetized rat, 8 or 16 mg/kg 10 minute IV infusion after heparin 50 U/kg): superior to protamine | hemodynamic liabilities (summary) [9]: reduced hemodynamic liabilities | coagulation properties via ROTEM [10]: normal coagulation properties at fully efficacious doses | Potent LMWH-antagonists with superior anti-fondaparinux activity (summary) [13]: superior anti-fondaparinux activity

EC50 [14]: 2540 nM and 1780 nM | EC50 [11]: 0.245 µM | EC50 [12]: 101 nM and 140 nM | EC50 [15]: 108 nM and 150 nM | EC50 ([13]; read-out: Fondap FXa EC50, fondaparinux 0.02 μg/mL, human antithrombin, bovine Factor Xa): 90 nM and 154 nM
Compound: COc1ccc(NC(=O)[C@H](CCCNC(=N)N)NC(=O)c2cc(NC(=O)[C@H](CCCNC(=N)N)NC(=O)c3cc(NC(=O)[C@H](CCCNC(=N)N)NC(=O)c4cc(NC(=O)[C@@H](N)CCCNC(=N)N)ccc4OC)ccc3OC)ccc2OCC(=O)O)cc1C(=O)N[C@@H](Cc1c[nH]c2ccccc12)C(N)=O [Compound 311]
hemolysis and cytotoxicity (summary) [1]: non-hemolytic and low cytotoxicity | EC50 at 1 h [2]: 1000 µg/mL (≈ 681 µM) | Cytotoxicity HepG2, percent printed in parentheses after the concentration [3]: 50% | Cytotoxicity HepG2 EC50 [3]: >1000 µg/mL | EC50 at 1 h [4]: 1000 µg/mL (≈ 681 µM) | Cytotoxicity 3T3, percent printed in parentheses after the concentration [5]: 50% | Cytotoxicity 3T3 EC50 [5]: >1000 µg/mL | neutralization of enoxaparin (aPTT and factor Xa assays, words) [6]: marginally more efficacious than the 3-Arg derivative | reduction of Factor Xa (anti-factor Xa) levels after fondaparinux [8]: markedly reduced | in vivo efficacy versus fondaparinux (summary) [8]: in vivo efficacy versus fondaparinux | coagulation properties via ROTEM [10]: normal coagulation properties at fully efficacious doses | Potent LMWH-antagonists with superior anti-fondaparinux activity (summary) [13]: superior anti-fondaparinux activity

Compound: COc1cc(OC)c(C(=O)N[C@H]2CC[C@H](NC(=O)c3cc(C(=O)NCCN(C)C)c(OCCCCCNC(=N)N)cc3OCCCCCNC(=N)N)CC2)cc1C(=O)N[C@H]1CC[C@H](NC(=O)c2cc(C(=O)NCCN(C)C)c(OCCCCCNC(=N)N)cc2OCCCCCNC(=N)N)CC1 [Compound B]
hemolysis and cytotoxicity (summary) [1]: non-hemolytic and low cytotoxicity | in vivo efficacy versus LMWH by anti-factor Xa activity (summary) [6]: superior to protamine | neutralization of prolonged bleeding times ([7]; test agent 5 mg/kg IV): not completely reverse | reduction of Factor Xa (anti-factor Xa) levels after fondaparinux [8]: lack of effectiveness | hemodynamic liabilities (summary) [9]: reduced hemodynamic liabilities | coagulation properties via ROTEM [10]: normal coagulation properties at fully efficacious doses | Potent LMWH-antagonists with superior anti-fondaparinux activity (summary) [13]: superior anti-fondaparinux activity
